In brackets after ≈: the same amount, converted by molar mass. Like-named read-outs stand apart in the source and are kept apart here.
What was measured:
[1] = biological target: NAD synthetase (Bacillus subtilis, UniProt P08164); test: NAD synthetase coupled enzyme assay; type: biochemical
Excerpt: This Example illustrates the NAD synthetase enzyme inhibiting activity of some compounds of the present invention. [drawing 48] The coupled assay—production of NAD was monitored through conversion to NADH by alcohol dehydrogenase. [NADH] was monitored by 2 parallel methods: the change in absorbance at 340 nm, and fluorescence at 460 nm (excitation 320 nm). […] Controls were included for determining inhibitor background, precipitation, and ADH inhibition.

[2] = tested on: S. aureus (MCR); test: microbe, parasite or virus in culture; type: cell-based; conditions: for MIC: Staphylococcus aureus, read-out: Minimal Inhibitory Concentration (MIC), S. aureus (MCR), multiple values = two or more tests; for Minimal Inhibitory Concentration (MIC), S. aureus (MCR): multiple values = two or more tests
[3] = tested on: B. subtilis; test: microbe, parasite or virus in culture; type: cell-based; conditions: multiple values = two or more tests; for MIC: Bacillus subtilis, read-out: Minimal Inhibitory Concentration (MIC), B. subtilis
[4] = tested on: rabbit primary renal cells (RPRC); test: Cytotoxicity in rabbit primary renal cells (annexin V / PI flow cytometry); type: cell-based; conditions: 24 hr, mean ± SEM; for % CELLULAR NECROSIS (RPRC): at 300 μM; for % APOPTOSIS (RPRC): at peak effect (30 μM)
Experimental: Cytotoxicity in Rabbit Primary Renal Cells
Isolation of Proximal Tubules and Culture Conditions
Rabbit renal proximal tubules were isolated using the iron oxide perfusion method and grown in 35-mm tissue culture dishes under improved conditions. The cell culture medium was a 1:1 mixture of DMEM/Ham's F-12 (without D-glucose, phenol red, or sodium pyruvate) supplemented with 15 mM HEPES buffer, 2.5 mM L-gluatmine, 1 μM pyridoxine HCL, 15 mM sodium bicarbonate, and 6 mM lactate. Hydrocortisone (50 nM), selenium (5 ng/mL), human transferrin (5 μg/mL), bovine insulin (10 nM) and L-ascorbic acid-2-phosphate (50 μM) were added to fresh culture medium immediately prior to daily media change.
All numbered compounds were diluted in methanol and the final concentration of methanol in RPRC was less then 0.1% (v/v).
Measurement of RPRC Death
Cell death was monitored in RPRC by assessment of both annexin V and PI staining using flow cytometry. Briefly, RPRC were exposed to the indicated concentrations of compounds for 24 hr. Media was removed and RPRC washed twice with phosphate-buffered saline (PBS) and incubated in a binding buffer (10 mM HEPES, 140 mM NaCL, 5 mM KCL, 1 mM MgCl2, 1.8 mM CaCl2, pH=7.4) containing annexin V-FITC (1 μmol) and PI (25 μg/mL). After a 10 min incubation, RPRC were washed three times in the binding buffer and were released from the monolayers by gentle scrapping with a rubber policeman. Annexin V and PI staining were measured using a BectonDickson FacsCalibur flow cytometer (San Jose, Calif.). An equal number of cells (10,000) were counted for sample and apoptotic cells were defined as those that stained positive for annexin V-FITC only. RPRC undergoing necrotic cell death stained for PI only.
RPRC isolated from one rabbit represented one experiment (n=1). Data were analyzed and are reported as means±standard error of the mean of at least 3 separate experiments.

[5] = tested on: Bacillus anthracis Sterne 34F2; test: microbe, parasite or virus in culture; type: cell-based; conditions: for MIC: Bacillus anthracis
[6] = NAD synthetase 2.0 μg/mL, 0.1 mM NaAD, 0.2 mM ATP, pH 8.5
[7] = STERNE34F2, read-out: approximate MIC, B. anthracis (first value)
[8] = STERNE34F2, read-out: approximate MIC, B. anthracis (second value)

Sequence of NAD synthetase (P08164 whole entry): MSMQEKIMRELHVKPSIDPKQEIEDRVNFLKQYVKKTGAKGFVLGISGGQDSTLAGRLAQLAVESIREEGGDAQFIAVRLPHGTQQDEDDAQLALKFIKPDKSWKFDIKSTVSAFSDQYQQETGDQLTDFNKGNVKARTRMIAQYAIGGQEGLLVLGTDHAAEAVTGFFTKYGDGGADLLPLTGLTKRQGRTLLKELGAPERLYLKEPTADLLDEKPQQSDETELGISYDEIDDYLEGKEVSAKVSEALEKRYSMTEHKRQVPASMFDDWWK

C[N+](C)(C)C(Cc1c[nH]c2ccccc12)C(=O)OCCCCCCCn1ccc2cc(OCc3ccccc3)ccc21 (stereo not shown) [Compound 1505]
IC50 [1, 6]: 6.6 µM | MIC [2]: < 0.78 µg/mL | MIC [3]: < 0.78 µg/mL

C[N+](C)(C)C.[I-] [TMAI, tetramethylammonium iodide, reference compound]
% CELLULAR NECROSIS (RPRC) [4]: 2 ± 1% | % APOPTOSIS (RPRC) [4]: 5 ± 1%

Cl.N=C(N)N[C@H](COCCCCCCCCOc1ccc(OCc2ccccc2)cc1)Cc1ccccc1 [Compound 1685]
IC50 [1, 6]: 9.9 µM | approximate MIC, B. anthracis (first value) ([5]; first value of cell, standard broth dilution assay using bacterial growth media (order assumed)): 4; 4 μg/mL | approximate MIC, B. anthracis (second value) ([5]; second value of cell, visual turbidity, bacteria cultured in mammalian cell culture media (order assumed)): 4; 4 μg/mL | Minimal Inhibitory Concentration (MIC), S. aureus (MCR) [2]: <0.78 µg/mL | Minimal Inhibitory Concentration (MIC), B. subtilis [3]: <3.13 µg/mL

O=C(O)c1cn(C2CC2)c2cc(N3CCNCC3)c(F)cc2c1=O [Ciprofloxacin, reference compound]
MIC [5, 7]: 0.25 µg/mL (≈ 0.754 µM) | MIC [5, 8]: 0.125 µg/mL (≈ 0.377 µM) | % CELLULAR NECROSIS (RPRC) [4]: 4 ± 1% | % APOPTOSIS (RPRC) [4]: 9 ± 3%

CSc1ccc(C(=O)Oc2ccc(OCCCCCCCCOC(=O)C(Cc3ccccc3)[N+](C)(C)C)cc2)cc1 (stereo not shown) [Compound 1478]
IC50 [1, 6]: 15.8 µM

C[N+](C)(C)C(Cc1ccccc1)C(=O)OCCCCCCCn1ccc2cc(OCc3ccccc3)ccc21 (stereo not shown) [Compound 1408]
IC50 [1, 6]: 30.5 µM

CC(C)(C)OC(=O)C(Cc1cn(CCCCCCCCOc2ccc(OCc3ccccc3)cc2)c2ccccc12)[N+](C)(C)C (stereo not shown) [Compound 1494]
IC50 [1, 6]: 12.5 µM

C[n+]1cccc(C(=O)NCCCCCCCCOc2ccc(OC(=O)c3cccc(Cl)c3Cl)cc2)c1 [Compound 1661]
IC50 [1, 6]: 23.7 µM

C[N+](C)(C)c1ccc(CC(=O)NCCCCCCCCOc2ccc(OC(=O)c3cc(Cl)cc(Cl)c3)cc2)cc1 [Compound 1637]
IC50 [1, 6]: 23.3 µM

C[N+](C)(C)C(Cc1ccccc1)C(=O)NCCCCCCCCOc1ccc(OC(=O)c2cccc(F)c2)cc1 (stereo not shown) [Compound 1597]
IC50 [1, 6]: 21.3 µM

CC[N+]1([C@@H](Cc2ccccc2)C(=O)OCCCCCCCCOc2ccc(OCc3ccccc3)cc2)CCCC1 [Compound 1442]
IC50 [1, 6]: 21.4 µM

C[N+](C)(C)c1ccc(CC(=O)NCCCCCCCCOc2ccc(OC(=O)c3cc(Cl)cc(Cl)c3Cl)cc2)cc1 [Compound 1644]
IC50 [1, 6]: 23.9 µM

CN(CCCCCCCCOc1ccc(OCc2ccccc2)cc1)C[C@H](Cc1ccccc1)[N+](C)(C)C [Compound 1499]
IC50 [1, 6]: 26.8 µM

C[N+]1([C@@H](Cc2ccccc2)C(=O)NCCCCCCCCOc2ccc(OCc3ccccc3)cc2)CCCC1 [Compound 1495]
IC50 [1, 6]: 33.4 µM

C[N+](C)(C)c1ccc(CCCC(=O)OCCCCCCCCOc2ccc(OCc3ccccc3)cc2)cc1 [Compound 1264]
IC50 [1, 6]: 38.1 µM

C[N+](C)(C)c1ccc(CC(=O)NCCCCCCCCOc2ccc(OC(=O)c3ccccc3Cl)cc2)cc1 [Compound 1622]
IC50 [1, 6]: 34.2 µM

CN(C)c1ccc(C(=O)Oc2ccc(OCCCCCCCCOC(=O)C(Cc3ccccc3)[N+](C)(C)C)cc2)cc1 (stereo not shown) [Compound 1484]
IC50 [1, 6]: 14.8 µM | MIC [2]: < 0.78 µg/mL | MIC [3]: < 3.13 µg/mL

CC(C)Oc1ccc(C(=O)Oc2ccc(OCCCCCCCCNC(=O)C(Cc3ccccc3)[N+](C)(C)C)cc2)cc1 (stereo not shown) [Compound 1600]
IC50 [1, 6]: 28.7 µM

N=C(N)N[C@H](COCCCCCCCCOc1ccc(OCc2ccccc2)cc1)Cc1ccccc1 [Compound 1679]
IC50 [1]: 10.4 µM

C[N+](C)(C)C(Cc1ccc([N+](=O)[O-])cc1)C(=O)OCCCCCCCCOc1ccc(OCc2ccccc2)cc1 (stereo not shown) [Compound 1405]
IC50 [1, 6]: 18.8 µM

C[N+](C)(C)C(Cc1ccccc1)C(=O)NCCCCCCCCOc1ccc(OC(=O)c2cc(F)c(F)c(F)c2)cc1 (stereo not shown) [Compound 1621]
IC50 [1, 6]: 25.5 µM

C[N+](C)(C)C(Cc1ccccc1)C(=O)NCCCCCCCCOc1ccc(OC(=O)c2ccc(F)c(F)c2)cc1 (stereo not shown) [Compound 1613]
IC50 [1, 6]: 19.1 µM

COc1ccc(COc2ccc(OCCCCCCCCOC(=O)C(Cc3ccccc3)[N+](C)(C)C)cc2)cc1 (stereo not shown) [Compound 1389]
IC50 [1, 6]: 45.5 µM

COc1ccccc1COc1ccc(OCCCCCCCCOC(=O)C(Cc2ccccc2)[N+](C)(C)C)cc1 (stereo not shown) [Compound 1387]
IC50 [1, 6]: 20.5 µM

C[N+](C)(C)C(Cc1ccccc1)C(=O)NCCCCCCCCOc1ccc(OC(=O)c2cc(F)cc(F)c2F)cc1 (stereo not shown) [Compound 1617]
IC50 [1, 6]: 31.4 µM | MIC [5, 7]: 16 µg/mL | % CELLULAR NECROSIS (RPRC) [4]: 18 ± 2% | % APOPTOSIS (RPRC) [4]: 23 ± 3% | MIC [2]: < 6.25 µg/mL | MIC [3]: < 12.5 µg/mL

C[N+](C)(C)C(Cc1ccccc1)C(=O)NCCCCCCCCOc1ccc(OC(=O)c2ccccc2F)cc1 (stereo not shown) [Compound 1596]
IC50 [1, 6]: 28 µM

C[N+](C)(C)c1ccc(CC(=O)NCCCCCCCCOc2ccc(OCc3cccc(Cl)c3)cc2)cc1 [Compound 1421]
IC50 [1, 6]: 34.8 µM

C[N+](C)(C)C(Cc1ccccc1)C(=O)NCCCCCCCCOc1ccc(OC(=O)c2cccc(Cl)c2)cc1 (stereo not shown) [Compound 1594]
IC50 [1, 6]: 25 µM | MIC [5, 7]: 8 µg/mL | MIC [5, 8]: 32 µg/mL | % CELLULAR NECROSIS (RPRC) [4]: 29 ± 4% | % APOPTOSIS (RPRC) [4]: 13 ± 2% | MIC [2]: < 6.25 µg/mL | MIC [3]: > 50 µg/mL

C[N+]1([C@@H](Cc2ccccc2)C(=O)OCCCCCCCCOc2ccc(OCc3ccccc3)cc2)CCCCC1 [Compound 1337]
IC50 [1, 6]: 20.3 µM

C[N+](C)(C)c1ccc(CC(=O)OCCCCCCCCCOc2ccc(OCc3ccccc3)cc2)cc1 [Compound 1321]
IC50 [1, 6]: 22 µM

C[n+]1cccc(C(=O)NCCCCCCCCOc2ccc(OC(=O)c3cc(F)c(F)c(F)c3)cc2)c1 [Compound 1678]
IC50 [1, 6]: 36.5 µM

C[N+](C)(C)C(Cc1ccccc1)C(=O)NCCCCCCCCOc1ccc(OC(=O)c2cccc(F)c2F)cc1 (stereo not shown) [Compound 1609]
IC50 [1, 6]: 20.7 µM

CC(=O)Oc1ccc(C(=O)Oc2ccc(OCCCCCCCCOC(=O)C(Cc3ccccc3)[N+](C)(C)C)cc2)cc1 (stereo not shown) [Compound 1475]
IC50 [1, 6]: 22.6 µM

C[N+](C)(C)c1ccc(CC(=O)OCCCCCCCCn2ccc3cccc(OCc4ccccc4)c32)cc1 [Compound 1127]
IC50 [1, 6]: 23 µM

CC1(C)S[C@@H]2[C@H](NC(=O)[C@H](N)c3ccccc3)C(=O)N2[C@H]1C(=O)O [Ampicillin, reference compound]
MIC [2]: > 50 µg/mL

C[N+](C)(C)c1ccc(CC(=O)NCCCCCCCCOc2ccc(OC(=O)c3cc(F)c(F)c(F)c3)cc2)cc1 [Compound 1650]
IC50 [1, 6]: > 50 µM

COc1ccccc1COc1ccc(OCCCCCCCCOC(=O)Cc2ccc([N+](C)(C)C)cc2)cc1 [Compound 1393]
IC50 [1, 6]: 36.7 µM

C[N+](C)(C)c1ccc(CC(=O)NCCCCCCCCOc2ccc(OC(=O)c3ccc(Cl)cc3)cc2)cc1 [Compound 1624]
IC50 [1, 6]: 31.2 µM

C[N+](C)(C)c1ccc(CC(=O)NCCCCCCCCOc2ccc(OC(=O)c3ccc(Cl)cc3Cl)cc2)cc1 [Compound 1633]
IC50 [1, 6]: 20.4 µM

C[n+]1cccc(C(=O)NCCCCCCCCOc2ccc(OC(=O)c3ccc(Cl)c(Cl)c3)cc2)c1 [Compound 1665]
IC50 [1, 6]: 19.6 µM

C[N+](C)(C)C(Cc1ccccc1)C(=O)OCCCCCCCCOc1ccc(OCc2cccc(Cl)c2)cc1.[I-] (stereo not shown) [Compound 1391]
IC50 [1, 6]: 11.5 µM | Minimal Inhibitory Concentration (MIC), S. aureus (MCR) [2]: <1.56 µg/mL | Minimal Inhibitory Concentration (MIC), B. subtilis [3]: <3.13 µg/mL

N=C(N)N[C@H](COCCCCCCCCOc1ccc(OCc2ccccc2)cc1)Cc1ccccc1 [Compound 1680]
IC50 [1, 6]: 10.1 µM

Source: US6861448B2, “NAD synthetase inhibitors and uses thereof” (priority 1998, dated 2005)
